According to patent US20150224085A1, “METHOD OF ADMINISTERING A 5,5-FUSED HETEROARYLENE HEPATITIS C VIRUS INHIBITOR FOR TREATING OF PREVENTING HEPATITIS C VIRUS INFECTION” (priority 2012, published 2015):
Converted amounts (≈) assume the structure as drawn. “And” between values parts separate entries of the source, which are not always exact repeats. Identical values can stand only once. Like-named read-outs stand apart in the source and are kept apart here.

Assays:
[1] = test system: least susceptible HCV genotype; test: Protein-binding adjusted EC90; assay type: cell-based; conditions: Hepatitis C virus, read-out: protein-binding adjusted EC90
[2] = Phase I/IIa Groups C and D: safety and tolerability; assay type: in vivo, human
Method: (§1) The phase I/IIa study was designed to evaluate safety and tolerability, pharmacokinetics (PK), food effect, and antiviral activity with regard to the Compound. The key safety parameters that were evaluated in the trial include adverse events (AEs), physical examination, vital signs, 12-lead electrocardiogram (ECG), and standard safety laboratory tests. The key antiviral activity parameters that were evaluated in the trial include changes in plasma HCV RNA and emergence of resistance mutations. The key pharmacokinetic parameters that were evaluated in the trial include plasma and urine concentrations of the Compound.
(§2) In Group C, the Compound was evaluated in a randomized, double-blind, placebo-controlled, parallel dosing study in 34 treatment-naive, genotype 1 HCV-infected subjects.
(§3) In Group D, the Compound was evaluated in an randomized, double-blind, placebo-controlled, parallel dosing study in 30 treatment-naive, genotypes 2, 3, and 4 HCV-infected subjects.
(§4) For all cohorts, dosing was under fasted in this study.

HCV Genotype 2 [3] = test: Phase I/IIa Group D: HCV RNA reduction, 3-day dosing, Genotype 2; assay type: in vivo, hepatitis C virus; conditions: for Mean (Range) Maximal HCV RNA Reduction from Baseline: n = 4
Method: as §1
(§5) In the phase I/IIa study, plasma HCV RNA was quantitated using a validated commercial assay (COBAS® TAQMAN®) with a lower limit of quantitation of 25 IU/mL. HCV RNA genotyping was performed at Baseline using the Versant HCV Genotype Assay (LiPA) 2.0.
as §3, §4

HCV Genotype 3 = test: Phase I/IIa Group B: plasma HCV RNA reduction after single dose, Genotype 3; assay type: in vivo, hepatitis C virus; conditions: 1 subject
Method: as §1, §5
(§6) In Group B, the Compound was evaluated in an open-label, single day study in 18 subjects with chronic HCV Genotype 1, 2, or 3 infection. […] For all cohorts, dosing was under fasted in this study.

[4] = test system: genotype 2 replicon with L31M substitution (NS5A M31); test: HCV replicon model, resistance; assay type: cell-based, hepatitis C virus
HCV Genotype 1a = test: Phase I/IIa Group B: plasma HCV RNA reduction after single dose, Genotype 1a; assay type: in vivo, hepatitis C virus; conditions: for Maximum Viral Load Reduction after Single Dose: 1 subject; for Mean maximum viral load reduction after Single Dose: 2 subjects
Method: as §1, §5, §6

HCV Genotype 4 = test: Phase I/IIa Group D: HCV RNA reduction, 3-day dosing, Genotype 4; assay type: in vivo, hepatitis C virus; conditions: n = 4
Method: as §1, §5, §3, §4

HCV Genotype 1b = test: Phase I/IIa Group C: HCV RNA reduction, 3-day dosing, Genotype 1b; assay type: in vivo, hepatitis C virus
Method: as §1, §5, §2, §4

[5] = Phase I/IIa Group A: pharmacokinetics in healthy subjects; assay type: in vivo, human; conditions: for Cmax / half-life / AUC(0-inf) / Tmax: human, plasma, oral
Method: The phase I/IIa study was designed to evaluate safety and tolerability, pharmacokinetics (PK), food effect, and antiviral activity with regard to the Compound. The key safety parameters that were evaluated in the trial include adverse events (AEs), physical examination, vital signs, 12-lead electrocardiogram (ECG), and standard safety laboratory tests. The key antiviral activity parameters that were evaluated in the trial include changes in plasma HCV RNA and emergence of resistance mutations. The key pharmacokinetic parameters that were evaluated in the trial include plasma and urine concentrations of the Compound. […]
The Compound was first evaluated in a randomized, double-blind, placebo-controlled, sequential dose escalation study in 48 healthy subjects. For each cohort, there were 6 subjects to receive the Compound and 2 subjects to receive placebo. Except cohort 5a, the Compound was administered under fasted conditions.
For the food effect study (cohort 5a), subjects received a single dose of 50 mg of the Compound or placebo on Days 1 and 8, with a 7 day washout between dosing periods. In the food effect study, the subjects were randomized among two groups, differing by fasted/fed dosing sequences as shown in Table 3.

HCV Genotype 2 [6] = test: Phase I/IIa Group B: plasma HCV RNA reduction after single dose, Genotype 2; assay type: in vivo, hepatitis C virus; conditions: 1 subject
Method: as §1, §5, §6

[7] = test system: HCV Genotypes 1, 2, 3, and 4; test: Phase I/IIa Groups C and D: antiviral activity across genotypes; assay type: in vivo, hepatitis C virus
Method: as §1, §5, §2, §3, §4

[8] = healthy subjects, 100 mg QD x 7 days, fasted, PK Day 1, mean ± SD
[9] = 5 mg, healthy subjects, 5 mg single dose, fasted, PK Day 1, mean ± SD
[10] = 10 mg, healthy subjects, 10 mg single dose, fasted, PK Day 1, mean ± SD
[11] = 25 mg, healthy subjects, 25 mg single dose, fasted, PK Day 1, mean ± SD
[12] = 50 mg, healthy subjects, 50 mg single dose, fasted, PK Day 1, mean ± SD
[13] = 50 mg, healthy subjects, 50 mg single dose, fed, PK Day 1, mean ± SD
[14] = 100 mg, healthy subjects, 100 mg QD x 7 days, fasted, PK Day 7, mean ± SD
[15] = 100 mg, healthy subjects, 100 mg single dose, fasted, PK Day 1, mean ± SD

COC(=O)N[C@H](C(=O)N1CCC[C@H]1c1nc2cc(-c3csc4c(-c5ccc(-c6cnc([C@@H]7CCCN7C(=O)[C@H](NC(=O)OC)c7ccccc7)[nH]6)cc5)csc34)ccc2[nH]1)C(C)C [the Compound, [(S)-1-((S)-2-{6-[6-(4-{(S)-2-[1-((R)-2-methoxycarbonylamino-2-phenyl-acetyl)-pyrrolidin-2-yl]-3H-imidazol-4-yl}-phenyl)-thieno[3,2-b]thiophen-3-yl]-1H-benzoimidazol-2-yl}-pyrrolidine-1-carbonyl)-2-methyl-propyl]-carbamic acid methyl ester]
EC90 [1]: ~2.3 ng/mL (≈ 2.6 nM)
intensity of adverse events ([2]; Groups C and D): mild or moderate
most common adverse events ([2]; Groups C and D): headache, constipation, and nausea
discontinuations and serious adverse events ([2]; Groups C and D, 25 to 100 mg/day x 3 days): no safety-related discontinuations or serious adverse events
safety and tolerability ([2]; daily doses up to 100 mg for 3 days): safe and well tolerated
Mean (Range) Maximal HCV RNA Reduction from Baseline (HCV Genotype 2 [3]; 50 mg BID x 3 days): 2.0 (0.5-4.0) log10 IU/mL
Mean (Range) Maximal HCV RNA Reduction from Baseline (HCV Genotype 2 [3]; 100 mg QD x 3 days): 2.0 (0.3-4.1) log10 IU/mL
Mean Max Viral Load Response (HCV Genotype 2 [3]; subjects with L31 at BL, L31M at Day 4, 2 subjects): −2.83 log10 IU/mL
Mean Max Viral Load Response (HCV Genotype 2 [3]; subjects with L31 at BL, low VL at Day 4 (<1,000 IU/mL), 2 subjects): −4.06 log10 IU/mL
Mean Max Viral Load Response (HCV Genotype 2 [3]; subjects with M31 at BL, 3 subjects): −0.45 log10 IU/mL
mean maximal viral load reduction (HCV Genotype 2 [3]; total daily dose of 100 mg for 3 days): 2.0 log10 IU/mL
Maximum Viral Load Reduction after Single Dose (HCV Genotype 3; 25 mg single dose): 2.2 log10 IU/mL
Maximum Viral Load Reduction after Single Dose (HCV Genotype 3; 50 mg single dose): 3.7 log10 IU/mL
Maximum Viral Load Reduction after Single Dose (HCV Genotype 3; 100 mg single dose): 3.3 log10 IU/mL
resistance conferred by L31M substitution (NS5A M31 polymorphism) [4]: 75 fold
Maximum Viral Load Reduction after Single Dose (HCV Genotype 1a; 1 mg single dose): 0.8^2 log10 IU/mL
Mean maximum viral load reduction after Single Dose (HCV Genotype 1a; 5 mg single dose): 2.6^1 log10 IU/mL
Maximum Viral Load Reduction after Single Dose (HCV Genotype 1a; 10 mg single dose): 2.9^2 log10 IU/mL
Mean maximum viral load reduction after Single Dose (HCV Genotype 1a; 25 mg single dose): 3.7^1 log10 IU/mL
Maximum Viral Load Reduction after Single Dose (HCV Genotype 1a; 50 mg single dose): 2.5^2 log10 IU/mL
Maximum Viral Load Reduction after Single Dose (HCV Genotype 1a; 100 mg single dose): 3.3^2 log10 IU/mL
Mean (Range) Maximal HCV RNA Reduction from Baseline (HCV Genotype 4; 50 mg BID x 3 days): 3.9 (3.4-4.5) log10 IU/mL
Mean (Range) Maximal HCV RNA Reduction from Baseline (HCV Genotype 4; 100 mg QD x 3 days): 3.6 (2.3-4.6) log10 IU/mL
Mean (Range) Maximal HCV RNA Reduction from Baseline (HCV Genotype 1b; 25 mg QD x 3 days, n = 3): 3.0 (2.0-4.2) log10 IU/mL
Mean (Range) Maximal HCV RNA Reduction from Baseline (HCV Genotype 1b; 50 mg QD x 3 days, n = 2): 4.3 (4.1-4.5) log10 IU/mL
reduction of exposure by food ([5]; 50 mg, after high-fat (about 55 g), high-calorie (about 950 kcal) meal): approximately two-thirds
increase of AUC0-inf upon reaching steady state ([5]; QD dosing x 7 days): approximately 50%
increase of Ctrough upon reaching steady state ([5]; QD dosing x 7 days): about 70%
Ctrough ([5]; healthy subjects, 5 mg single dose, fasted, PK Day 1, mean ± SD): 1.6 ± 0.5 ng/mL
Ctrough ([5]; healthy subjects, 10 mg single dose, fasted, PK Day 1, mean ± SD): 3.7 ± 1.8 ng/mL
Ctrough ([5]; healthy subjects, 25 mg single dose, fasted, PK Day 1, mean ± SD): 8.1 ± 2.9 ng/mL
Ctrough ([5]; healthy subjects, 50 mg single dose, fasted, PK Day 1, mean ± SD): 13.4 ± 4.6 ng/mL
Ctrough ([5]; healthy subjects, 50 mg single dose, fed, PK Day 1, mean ± SD): 5.6 ± 1.3 ng/mL
AUC0-24 (column AUC0-inf, footnote 1) [5, 8]: 980 ± 312.4^1 ng · h/mL
Ctrough [5, 8]: 20.4 ± 9.0 ng/mL
Ctrough ([5]; healthy subjects, 100 mg QD x 7 days, fasted, PK Day 7, mean ± SD): 34 ng/mL and 34.0 ± 14.4 ng/mL
Ctrough ([5]; healthy subjects, 100 mg single dose, fasted, PK Day 1, mean ± SD): 17.1 ± 6.2 ng/mL
exposure versus dose ([5]; healthy volunteers, dose range 5 to 100 mg): Dose proportional exposure
Cmax [5, 9]: 5.1 ± 1.1 ng/mL
half-life [5, 9]: 21 ± 4.5 h
AUC(0-inf) ([5]; 5 mg, healthy subjects, 5 mg single dose, fasted, PK Day 1, mean ± SD, read-out: AUC0-inf): 110 ± 35.4 ng·h/mL
Tmax ([5]; 5 mg, healthy subjects, 5 mg single dose, fasted, PK Day 1, median (min-max)): 4 h
Cmax [5, 10]: 11.5 ± 4.3 ng/mL
half-life [5, 10]: 24 ± 4.7 h
AUC(0-inf) ([5]; 10 mg, healthy subjects, 10 mg single dose, fasted, PK Day 1, mean ± SD, read-out: AUC0-inf): 259 ± 123 ng·h/mL
Tmax ([5]; 10 mg, healthy subjects, 10 mg single dose, fasted, PK Day 1, median (min-max)): 5 h
Cmax [5, 11]: 26.5 ± 11.1 ng/mL
half-life [5, 11]: 24 ± 3.2 h
AUC(0-inf) ([5]; 25 mg, healthy subjects, 25 mg single dose, fasted, PK Day 1, mean ± SD, read-out: AUC0-inf): 570 ± 200 ng·h/mL
Tmax ([5]; 25 mg, healthy subjects, 25 mg single dose, fasted, PK Day 1, median (min-max)): 4 h
Cmax [5, 12]: 50.9 ± 18.1 ng/mL
half-life [5, 12]: 22 ± 1.7 h
AUC(0-inf) ([5]; 50 mg, healthy subjects, 50 mg single dose, fasted, PK Day 1, mean ± SD, read-out: AUC0-inf): 952 ± 336 ng·h/mL
Tmax ([5]; 50 mg, healthy subjects, 50 mg single dose, fasted, PK Day 1, median (min-max)): 4 h
Cmax [5, 13]: 13.2 ± 3.3 ng/mL
half-life [5, 13]: 23 ± 3 h
AUC(0-inf) ([5]; 50 mg, healthy subjects, 50 mg single dose, fed, PK Day 1, mean ± SD, read-out: AUC0-inf): 335 ± 53.9 ng·h/mL
Tmax ([5]; 50 mg, healthy subjects, 50 mg single dose, fed, PK Day 1, median (min-max)): 6 h
Cmax ([5]; 100 mg, healthy subjects, 100 mg QD x 7 days, fasted, PK Day 1, mean ± SD): 86.9 ± 25.9 ng/mL
Tmax ([5]; 100 mg, healthy subjects, 100 mg QD x 7 days, fasted, PK Day 1, median (min-max)): 4 h
Cmax [5, 14]: 117 ± 39.4 ng/mL
half-life [5, 14]: 21 ± 3.4 h
AUC(0-inf) ([5]; 100 mg, healthy subjects, 100 mg QD x 7 days, fasted, PK Day 7, mean ± SD, read-out: AUC0-inf (cell marked with footnote 1)): 1480 ± 489 ng·h/mL
Tmax ([5]; 100 mg, healthy subjects, 100 mg QD x 7 days, fasted, PK Day 7, median (min-max)): 3.5 h
Cmax [5, 15]: 83.3 ± 49.1 ng/mL
half-life [5, 15]: 23 ± 2.7 h
AUC(0-inf) ([5]; 100 mg, healthy subjects, 100 mg single dose, fasted, PK Day 1, mean ± SD, read-out: AUC0-inf): 1290 ± 402 ng·h/mL
Tmax ([5]; 100 mg, healthy subjects, 100 mg single dose, fasted, PK Day 1, median (min-max)): 4 h
Maximum Viral Load Reduction after Single Dose (HCV Genotype 2 [6]; 25 mg single dose): 0.4 log10 IU/mL
Maximum Viral Load Reduction after Single Dose (HCV Genotype 2 [6]; 50 mg single dose): 3.2 log10 IU/mL
Maximum Viral Load Reduction after Single Dose (HCV Genotype 2 [6]; 100 mg single dose): 3.5 log10 IU/mL
antiviral activity ([7]; Genotype 1, 2, 3, and 4 HCV-infected subjects): potent, pan-genotypic antiviral activity
rebound (>1.0 log10 IU/mL increase over nadir) ([7]; during the 3 days of dosing): No subject experienced a rebound
mean maximal HCV RNA reductions ([7]; total dose of 100 mg/day for 3 days, Genotypes 1, 3, and 4): approximately 3.5 log10 IU/mL
